# Laboratory results published in patent US8034580B2, “Determining presence of antibiotic in a fluid” (DSM IP Assets B.V., priority 2003, dated 2011).
# Columns and labels:
# Type in all cases: cell-based
# [1] = test system: microorganism of Delvotest® MCS test medium; assay: Production scale Delvotest MCS microbiological inhibition test, sensitivity for different antibiotics (Example 4)
# Description: Two series of test systems were prepared on production scale. The first series is a commercially available Delvotest® MCS and the second series is as the first with Bromocresol Purple replaced with Bromothymol Blue (160 mg·l^−1). The sensitivity for different antibiotics was determined reading the test at the moment at which an antibiotic-free control changed color. The results are in the Table below (sensitivity values in ppb).
# [2] = test system: microorganism of Delvotest® MCS test medium; assay: Delvotest MCS microbial inhibition test, sensitivity for different antibiotics, plate test or tube test (Example 2)
# Description: […] The sensitivity for different antibiotics was determined by investigating two sets of six experiments using either a plate test or a tube test system. The sensitivity was determined by reading the test at the moment at which an antibiotic-free control changed color.
# [3] = test system: microorganism of Delvotest® MCS test medium; assay: Delvotest MCS microbial inhibition test, sensitivity for penicillin G (Example 1)
# Description: Commercially available Delvotest® MCS, prepared according to the methods described in EP 0005891, was adapted by the replacement of the indicator Bromocresol Purple by Bromothymol Blue (160 mg·l^−1). The sensitivity for penicillin G was determined by investigating samples containing different concentrations of penicillin G in different test systems. The results are summarized in the Table below (sensitivity values in ppb).
# [4] = test system: microorganism of Delvotest® MCS test medium; assay: Delvotest MCS type test systems with equal indicator concentration, sensitivity for penicillin G (Example 3)
# Description: Two test systems were prepared. The first system differs only from a commercially available Delvotest® MCS in that the concentration of Bromocresol Purple is 160 mg·l^−1, and the second series is as the first with Bromocresol Purple replaced with Bromothymol Blue (160 mg·l^−1). The sensitivity for penicillin G was determined reading the test at the moment at which an antibiotic-free control changed color. From the results as shown in the Table below (sensitivity values in ppb) it can be seen that the sensitivity of Bromothymol Blue is better then that of Bromocresol Purple at the same concentrations of indicator.
# [5] = indicator Bromocresol Purple, Batch #1, three weeks after production
# [6] = indicator Bromothymol Blue (160 mg·l^−1), Batch #1, three weeks after production
# [7] = indicator Bromocresol Purple (BP), experiment # 0
# [8] = indicator Bromothymol Blue (160 mg·l^−1), plate test, experiment # 1
# [9] = indicator Bromothymol Blue (160 mg·l^−1), plate test, experiment # 2
# [10] = indicator Bromothymol Blue (160 mg·l^−1), plate test, experiment # 3
# [11] = indicator Bromothymol Blue (160 mg·l^−1), plate test, experiment # 4
# [12] = indicator Bromothymol Blue (160 mg·l^−1), plate test, experiment # 5
# [13] = indicator Bromothymol Blue (160 mg·l^−1), plate test, experiment # 6
# [14] = indicator Bromothymol Blue (160 mg·l^−1), tube test, experiment # 7
# [15] = indicator Bromothymol Blue (160 mg·l^−1), tube test, experiment # 8
# [16] = indicator Bromothymol Blue (160 mg·l^−1), tube test, experiment # 9
# [17] = indicator Bromothymol Blue (160 mg·l^−1), tube test, experiment # 10
# [18] = indicator Bromothymol Blue (160 mg·l^−1), tube test, experiment # 11
# [19] = indicator Bromothymol Blue (160 mg·l^−1), tube test, experiment # 12
Compound,"sensitivity [1, 5] [ppb]","sensitivity [1, 6] [ppb]","sensitivity [2, 7] [ppb]","sensitivity [2, 8] [ppb]","sensitivity [2, 9] [ppb]","sensitivity [2, 10] [ppb]","sensitivity [2, 11] [ppb]","sensitivity [2, 12]","sensitivity [2, 13]","sensitivity [2, 14] [ppb]","sensitivity [2, 15] [ppb]","sensitivity [2, 16] [ppb]","sensitivity [2, 17] [ppb]","sensitivity [2, 18] [ppb]","sensitivity [2, 19] [ppb]",further results
CC1(C)S[C@@H]2[C@H](NC(=O)[C@H](N)c3ccc(O)cc3)C(=O)N2[C@H]1C(=O)O [Amoxicillin],8,4,8,4,2,2,2,2-4 ppb,2 ppb,4,4,4,4,4,4,
CC1(C)S[C@@H]2[C@H](NC(=O)[C@H](N)c3ccccc3)C(=O)N2[C@H]1C(=O)O [Ampicillin],6,2,8,2,2,2,2,2 ppb,2 ppb,2,2,2,2,2,2,
CC(=O)OCC1=C(C(=O)O)N2C(=O)[C@@H](NC(=O)CSc3ccncc3)[C@H]2SC1 [Cephapirin],8,4,8,2,2,4,6,2 ppb,4-6 ppb,4,4,4,4,4,4,
Cc1onc(-c2ccccc2Cl)c1C(=O)N[C@@H]1C(=O)N2[C@@H]1SC(C)(C)[C@@H]2C(=O)O [Cloxacillin],40,20,40,10,10,10,10,10 ppb,10 ppb,20,20,20,20,20,20,
CC1(C)S[C@@H]2[C@H](NC(=O)Cc3ccccc3)C(=O)N2[C@H]1C(=O)O [Penicillin G],3,2,3,1,2,1,1,1-2 ppb,1 ppb,2,2,2,2,2,2,"sensitivity ([1]; indicator Bromocresol Purple, Batch #1, immediately after production): 3 ppb; sensitivity ([1]; indicator Bromothymol Blue (160 mg·l^−1), Batch #1, immediately after production): 2 ppb; sensitivity ([3]; indicator Bromocresol Purple, Penicillin G concentrations of 0, 1, 2, 3 and 4 ppb investigated): 3 ppb; sensitivity ([3]; indicator Bromocresol Purple, Penicillin G concentrations of 0, 2, 4 and 6 ppb investigated): 4 ppb; sensitivity ([3]; indicator Bromothymol Blue (160 mg·l^−1), Penicillin G concentrations of 0, 1, 2, 3 and 4 ppb investigated): 2 ppb; sensitivity ([3]; indicator Bromothymol Blue (160 mg·l^−1), Penicillin G concentrations of 0, 2, 4 and 6 ppb investigated): 2 ppb; sensitivity ([4]; indicator Bromocresol Purple (160 mg·l^−1)): 3 ppb; sensitivity ([4]; indicator Bromothymol Blue (160 mg·l^−1)): 2 ppb"
Nc1ccc(S(=O)(=O)Nc2ncccn2)cc1 [Sulfadiazine],,,50,50,50,50,50,50 ppb,50 ppb,50,50,50,50,50,50,"sensitivity with Bromothymol Blue in comparison with Bromocresol purple ([2]; comparison of the two indicators, in words): identical"
Neomycin,400,200,600,100,100,100,100,100 ppb,100 ppb,200,200,200,200,200,200,
